Measured values taken from the NIST ThermoML archive (doi:10.1021/je400830w).

Experiments:
[1] = 100 kPa, Liquid; for viscosity: Falling or rolling sphere viscometry; for mass density: Vibrating tube method
[2] = refractive index (Na D-line) (dimensionless); details: 100 kPa, Liquid, Standard Abbe refractometry

NCCO [2-aminoethan-1-ol]
Details	mass density, [1] [kg/m3]	refractive index, [2]	viscosity, [1] [mPa·s]
298.15 K	1012.38	1.45406	18.89
303.15 K	1009.35	1.45241	15.11
313.15 K	1002.16	1.449	10.03
323.15 K	994.4	1.44522	6.983
333.15 K	986.24	1.44198	4.972
